Reference: patent publication US10780061B2, “Composition comprising farnesol and use thereof” (Daegu Gyongbuk Institute of Science and Technology, priority 2014, dated 2020)

Assays:
[1] = test system: fibrosis-related genes Col1 A1, Col A3, TGF-β, Timp2; assay: qRT-PCR of fibrosis-related genes in extensor digitorum longus muscles; type: in vivo, mouse; details: 22-month-old mice, farnesol diet 4 months
Description: In muscle aging, fibrosis is closely related to a reduction in regenerative capacity and a reduction in quality of muscle. 22-month-old female mice (weighing 30 g) are fed with a control diet or a farnesol-containing diet for 4 months. Other feeding conditions are the same as described in Section 2 of Example 1. Thereafter, expressions of fibrosis-related genes, collagen 1 A1 (Col1 A1), collagen A3(Col A3), TGF-β, and Timp2 in extensor digitorum longus muscles are analyzed by qRT-PCR (quantitative Real Time-polymerase chain reaction) (primer sets of SEQ ID NOS: 1 and 2, 3 and 4, 5 and 6, 7 and 8 are used).

[2] = LC-MS/MS of farnesol and metabolite FPP in extensor digitorum longus muscle; type: in vivo; details: mouse orally administered with farnesol 5 weeks
Description: The amount of intracellular farnesol or metabolite thereof is measured in the extensor digitorum longus muscle of a mouse administered with farnesol for 5 weeks.
Sample pretreatment for quantitative analysis of farnesol in the mouse extensor digitorum longus muscle is performed by extraction using saturated KOH/ethanol and fractionation using Tris-HCl buffer and n-hexane: ethanol (Journal of Pharmaceutical and Biomedical Analysis 47(2008) 560-566) and an n-hexane layer is obtained and dried, followed by LC-MS/MS (ACQUITY UPLC System and ACQUITY TQD mass spectrometry, Waters). […] The concentration of farnesol is determined by a ratio of a peak area of farnesol to a peak area of 1-tetradecanol used as an internal standard, they are added to the sample in an equal amount.
Sample pretreatment for quantitative analysis of a farnesol metabolite, farnesylpyrophosphate (FPP) in the mouse extensor digitorum longus muscle is performed by extraction using 2-propanol: 100 mM NH4HCO3, pH 7.8 (1:1 v/v) and protein precipitation using acetonitrile (Anal. Biochem. 383 (2008) 18-24), and a supernatant is obtained and dried, followed by LC-MS/MS (ACQUITY UPLC System and ACQUITY TQD mass spectrometry, Waters). […] The concentration of FPP is determined by a peak area.

[3] = test system: PGC-1α; assay: Immunoblotting of tibialis anterior muscles of mice administered with farnesol; type: in vivo, mouse; details: 5 month-old mice, feed with 0.5% w/w farnesol, 5 weeks
Description: 5 month-old C57BL/6 male mice (weighing 22 g) are maintained at a temperature of 22±2° C., humidity of 55±5%, and a light-dark cycle of 12:12 hours. An animal feed containing 0.5% w/w farnesol was supplied by Jung-Ang Lab Animal Inc. A control group is fed with a feed equivalent to a general feed for experimental animals, excluding that no 0.5% w/w farnesol is contained. They are allowed free access to drinking water. Skeletal muscles were separated from the mice and control mouse fed with farnesol for 5 weeks, and subjected to immunoblot analysis. In all the following Examples, administration or feeding of mouse is performed as above, unless otherwise mentioned. […] In this specification, assuming that human life expectancy of 100 years corresponds to mouse life expectancy of 3 years, human life expectancy is estimated from the relationship.

In the case of CC(C)=CCC/C(C)=C/CC/C(C)=C/CO [farnesol, (2E,6E)-3,7,11-trimethyldodeca-2,6,10-trien-1-ol], the “expressions of fibrosis-related genes in EDL” value [1] is reported as “remarkably reduced”, the “amount of farnesol in EDL muscle relative to control” value [2] is reported as ≥ 1.3 times and the “expression of PGC-1α in tibialis anterior muscle” value [3] is reported as “increased”. For the same molecule, the “expression of cytochrome C in tibialis anterior muscle” value [3] was “increased”.
